Source: publication PMC5225183, “Fingerprinting of neurotoxic compounds using a mouse embryonic stem cell dual luminescence reporter assay” (Archives of Toxicology, 2016)
Marks after values point to notes of the source that are not given here.

Key:
rats = conditions: rats, gestational days 6–17; ref Australian Therapeutic Goods Administration [2014]; cited from earlier work
[1] = system: Tubulin α1 (Tα1) promoter; assay: cells
Excerpt: (§1) Dual luciferase expressing CGR8-2Luc cells were obtained by transduction of mouse ESC CGR8 cells with the 2K7 EFS-Renilla Luciferase (RLuc)/Talpha1-Firefly Luciferase (FLuc) vector as previously described (Suter et al. [2006], [2009]); EFS corresponds to the short promoter of the eukaryotic translation elongation factor 1 alpha (EF1α), and Talpha1 to the Tubulin α1 (Tα1) promoter. Tα1 was selected as a promoter active in neurons, including early stages of neural differentiation. EF1α was originally selected to function as a constitutive promoter; however, it responds to cellular differentiation as well as to various chemicals, as previously shown (Kern et al. [2013]). Cells were cultured on 0.1 % gelatin-coated dishes in CGR8-2luc maintenance medium: BHK21 medium, supplemented with 10 % fetal calf serum, L-glutamine, non-essential amino acids, penicillin/streptomycin, and leukemia inhibitory factor (LIF). CGR8 cells were grown in a feeder-independent manner (embryonic pluripotent stem cells, ESCs) as described in protocol 1 (Fig. 1) before testing compounds of interest.
(§2) Fig. 1 Synopsis of experimental protocols. The impact of compounds on neural promoter activity (FLuc, Firefly Luciferase under the control of the Tα1 promoter), general promoter activity (RLuc, Renilla Luciferase under the control of the EF1α promoter), and amount of DNA (PI, propidium iodide fluorescence in cell homogenates) was investigated in undifferentiated mouse embryonic pluripotent stem cells (ESCs) and on ESC-derived neurons. Arrows indicate the time of measurement of the three parameters. a Protocol for testing compounds effects on ESCs. CGR8-2Luc cells were plated on gelatin-coated 96-well plates in maintenance medium (BHK21 medium containing 10 % FCS, L-glutamine, NEAA, P/S, and LIF). Twenty-four hours later, cells were exposed to compounds for forty-eight hours. b Protocol for testing compounds on ESC-derived neurons. CGR8-2Luc cells were co-cultured with MS5 cells to induce neural differentiation in DMEM medium containing 15 % KO-serum, NEAA, β-mercaptoethanol, and P/S. On day 5, cells were detached and seeded on polyornithine-coated plates in DMEM medium containing N2 supplement, bFGF, and P/S; compound exposure was from day 6 to day 8
(§3) To test compounds on ESC-derived neurons, neuronal differentiation was carried out as previously described (Suter et al. [2009]; Xu et al. [2014]). Briefly, CGR8-2Luc cells were seeded on irradiated bone marrow-derived stromal MS5 cells and cultivated for 4 days in DMEM medium containing 15 % Knock-out™ Serum Replacement, non-essential amino acids, beta-mercaptoethanol, and penicillin/streptomycin. At day 5, cells were then re-plated (3 × 10^5 cells/cm^2) on polyornithine-coated 96-well plates in N2 medium containing DMEM, N2 supplement, penicillin/streptomycin, and 10 ng/ml basic human fibroblast growth factor (bFGF) (Invitrogen). […] To assess toxicity of compounds on undifferentiated pluripotent stem cells (ESCs), CGR8-2Luc cells were plated at 45,000 cells/cm^2 on 0.1 % gelatin-coated dishes in BHK21 medium, supplemented with 10 % fetal calf serum, L-glutamine, non-essential amino acids, penicillin/streptomycin, and leukemia inhibitory factor (LIF). After 24 h, compounds were added and incubated for 48 h, before luciferase expression and PI fluorescence were analyzed. In all experiments, methylmercury was used as a positive control at a concentration of 5 µM.
(§4) Luciferase activities were measured with a Dual-Luciferase™ Reporter system kit. CGR8-2Luc ES cells were lysed in 96-well plates according to the manufacturer’s instructions. Luminescence measurements were performed on a Fluostar Optima reader. Luminescence counts were expressed as percentage of promoter activity normalized by comparison with the control wells treated by DMSO.

[2] = printed in column Concentration in humans; ref http://pubchem.ncbi.nlm.nih.gov/compound/16682730; cited from earlier work
[3] = Table S1, three classes; ref per compound in the footnotes of Table S1; cited from earlier work
CGR8-2Luc ESCs = system: CGR8-2Luc ESCs
Excerpt: as §2, §3
(§5) After measurement of luciferase activity, DNA quantity was determined by PI assay, as previously described (Xu et al. [2014]). PI was added to cell homogenates after the luciferase test, at a final concentration of 50 µg/ml and incubated for 2 h. After incubation, fluorescence intensity was measured on a Flexstation 3 microplate reader (Excitation: 544 nm ± 15 nm; Emission: 620 nm ± 15 nm). Results are expressed as percentage of control. Propidium iodide (PI) measures total DNA content as an approximation of the cell number. A decrease in PI fluorescence was interpreted as a decrease in cell number and therefore throughout the text referred to as cytotoxicity.
(§6) Lowest adverse effect level (LOAEL) was defined as the lowest tested concentrations that lead to a statistically significant decrease for a given read-out (FLuc, RLuc, and PI) compared to baseline. “Baseline” was not in all cases defined by untreated cells, but may also refer to, e.g., a state of increased activity due to low, non-toxic compound concentrations.

ESC-derived neurons = system: ESC-derived neurons
Excerpt: as §2, §3, §5, §6

[4] = system: ESCs and ESC-derived neurons; assay: Dual luminescence reporter test system, all readouts in ESCs and ESC-derived neurons
Excerpt: as §2, with “neurons.” for “neurons. CGR8-2Luc cells were co-cultured with MS5 cells to induce neural differentiation in DMEM medium containing 15 % KO-serum, NEAA, β-mercaptoethanol, and P/S. On day 5, cells were detached and seeded on polyornithine-coated plates in DMEM medium containing N2 supplement, bFGF, and P/S; compound exposure was from day 6 to day 8”
as §3, with “At” for “To test compounds on ESC-derived neurons, neuronal differentiation was carried out as previously described (Suter et al. [2009]; Xu et al. [2014]). Briefly, CGR8-2Luc cells were seeded on irradiated bone marrow-derived stromal MS5 cells and cultivated for 4 days in DMEM medium containing 15 % Knock-out™ Serum Replacement, non-essential amino acids, beta-mercaptoethanol, and penicillin/streptomycin. At”
Luciferase activities were measured with a Dual-Luciferase™ Reporter system kit. CGR8-2Luc ES cells were lysed in 96-well plates according to the manufacturer’s instructions. Luminescence measurements were performed on a Fluostar Optima reader. Luminescence counts were expressed as percentage of promoter activity normalized by comparison with the control wells treated by DMSO. […] parameters were measured in homogenates of ESCs and in ESC-derived neurons: (1) FLuc, reflecting the activity of early neural promoter Tα1. FLuc increases during neuronal differentiation. Many neurotoxic compounds may affect FLuc expression, either through impact on neuronal differentiation, through changes of neuronal gene expression, or through killing of neurons.
as §5, with “PI” for “After measurement of luciferase activity, DNA quantity was determined by PI assay, as previously described (Xu et al. [2014]). PI”
To describe the shape of different concentration–response curves, arbitrary scores were assigned as follows: 0 for “no change,” 1 for “down-stroke,” 2 for “bimodal profile,” and 3 for “up-stroke” (Fig. S1). A curve was classified as “down-stroke” or “up-stroke” if the change in response values comparative to control was statistically significant (p value <0.05, one-way ANOVA with post hoc Dunnett) with an additional requirement of a 30 % decrease or increase of mean response value relative to controls, respectively. If the absolute change in mean response values was below 30 % the curve was classified as “no change.” A curve was classified as “bimodal” if first up-stroke and subsequently down-stroke was observed.

EF1α promoter = system: EF1α promoter
Excerpt: as §1, §2, §3, §4

[5] = system: Tubulin α1 (Tα1) promoter
Excerpt: as §1, §2, §3, §4

Row | Structure (SMILES) | oral dose inducing developmental toxicity (rats) | LOAEL Neurons Tα1 [1] | oral lethal dose [2] | class based on clinical evidence for neurotoxicity [3] | LOAEL ESC DNA (CGR8-2Luc ESCs) | LOAEL Neurons DNA (ESC-derived neurons) | Number of non-cytotoxic changes [4] | LOAEL ESC EF1α (EF1α promoter) | LOAEL Neurons EF1α (EF1α promoter) | LOAEL ESC Tα1 [5]
1 | CC(=O)O[C@H]1CC[C@@]2(C)C(=CC[C@@H]3[C@@H]2CC[C@]2(C)C(c4cccnc4)=CC[C@@H]32)C1 [abiraterone acetate] | ≥ 10 mg/kg/day |  |  |  |  |  |  |  |  | 
2 | CC(=O)[O][Hg][c]1ccccc1 [Phenylmercuric acetate] |  | 0.5 µM | 5–50 mg/kg (oral lethal dose)^i | Possibly (developmental) | 0.5 µM | 0.5 µM | 0 | 0.5 µM | 0.5 µM | 0.5 µM
